From patent US5223421A, “Identification of methionine Nα-acetyltransferase” (The General Hospital Corporation, priority 1990, dated 1993)

How the values were obtained:
[1] = tested on: N^α -acetyltransferase activity of crude yeast lysate, wild-type (AAA1) strain T3A; test: N^α -acetylation of peptide substrates by crude yeast lysate, wild-type strain; format: biochemical, Saccharomyces cerevisiae; conditions: for Activity (%) AAA1: crude lysate of wild-type strain T3A, mean ± SD (N=3-5), normalized to human adrenocorticotropic hormone (1-24), 50 μM peptide
Procedure: (§1) N^α -acetyltransferase activity was determined as previously described [Lee et al., J. Biol. Chem. 263:14948-14955 (1988)]. Aliquots of the lysate or chromatographic fractions were added to 1.5 ml Eppendorf tubes containing a reaction mixture of 50 mM HEPES, pH 7.4, 150 mM KCl, 1 mM DTT, 25 μM [^3 H] acetyl coenzyme A (0.5 μCi) and 50 μM synthetic peptide with an adjusted final volume of 100 μl. The assay mixture was incubated at 30° C. for 30 min. The reaction was stopped by adding 17 μl of 0.5M acetic acid and chilled in an ice bath. The reaction samples were filtered through SP membrane discs (Cuno) (previously pre-swollen in 0.5M acetic acid), and then washed three times with 1 ml of 0.5M acetic acid on a Millipore 1225 sampling manifold. The partially dried membranes were placed in scintillation cocktail and counted with a Beckman LS 3801 scintillation counter. One unit of activity was defined as the amount of enzyme able to transfer 1 pmol of [^3 H] acetyl group from [^3 H] acetyl coenzyme A to synthetic peptide per min under standard enzyme assay conditions defined above.
(§2) The wild-type (containing endogenous N^α -acetyltransferase activity) and the aaa1 (lacking endogenous N^α -acetyltransferase activity) strains were T3A and T3A-a, respectively (Lee, F-J. S., et al., J. Bacteriol. 171, 5795-5802 (1989)). Human adrenocorticotropic hormone (1-24), yeast alcohol dehydrogenase (1-24), and human superoxide dismutase (1-24) have either serine or alanine as amino-terminal residues, while proteinase A inhibitor 3 has a methionine residue. The synthesis of the peptide substrates, the preparation of the crude yeast homogenate, and the assay of enzyme activity were as previously described by Lee et al. (Lee, F-J. S., et al., J. Biol. Chem. 263:14948 (1988); Kamitani, K., et al., J. Biol. Chem. 264:13188 (1989)). The numbers in parentheses refer to the residue numbers, and the letters in parentheses specify the amino acid sequence. Abbreviations: A (alanine), C (cysteine), D (aspartic acid), E (glutamic acid), F (phenylalanine), G (glycine), H (histidine), I (isoleucine), K (lysine), L (leucine), M (methionine), N (asparagine), P (proline), Q (glutamine), R (arginine), S (serine), T (threonine), V (valine), W (tryptophan). Data are reported as mean activity±SD (N=3-5) and are normalized to the activity of the homogenate towards human adrenocorticotropic hormone (1-24).

[2] = target: T1, N^α -acetyltransferase activity of crude yeast lysate, aaa1 mutant strain T3A-a (Saccharomyces cerevisiae, UniProt Q06504); test: N^α -acetylation of peptide substrates by crude yeast lysate, aaa1 mutant strain; format: biochemical; conditions: for Activity (%) aaa1: crude lysate of aaa1 mutant strain T3A-a, mean ± SD (N=3-5), normalized to human adrenocorticotropic hormone (1-24), 50 μM peptide
T1 construct: a crude yeast homogenate from the aaa1 mutant strain; endogenous in cells; host or cells: Saccharomyces cerevisiae strain T3A-a (aaa1), crude lysate
T1 sequence (Q06504 1-195): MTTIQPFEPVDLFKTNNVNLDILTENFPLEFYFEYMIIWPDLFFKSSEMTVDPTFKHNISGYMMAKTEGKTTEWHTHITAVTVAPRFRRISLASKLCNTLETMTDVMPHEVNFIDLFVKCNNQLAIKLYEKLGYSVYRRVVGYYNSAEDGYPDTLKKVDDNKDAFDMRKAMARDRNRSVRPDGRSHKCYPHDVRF
T1 sequence (Q12387 1-796 partner): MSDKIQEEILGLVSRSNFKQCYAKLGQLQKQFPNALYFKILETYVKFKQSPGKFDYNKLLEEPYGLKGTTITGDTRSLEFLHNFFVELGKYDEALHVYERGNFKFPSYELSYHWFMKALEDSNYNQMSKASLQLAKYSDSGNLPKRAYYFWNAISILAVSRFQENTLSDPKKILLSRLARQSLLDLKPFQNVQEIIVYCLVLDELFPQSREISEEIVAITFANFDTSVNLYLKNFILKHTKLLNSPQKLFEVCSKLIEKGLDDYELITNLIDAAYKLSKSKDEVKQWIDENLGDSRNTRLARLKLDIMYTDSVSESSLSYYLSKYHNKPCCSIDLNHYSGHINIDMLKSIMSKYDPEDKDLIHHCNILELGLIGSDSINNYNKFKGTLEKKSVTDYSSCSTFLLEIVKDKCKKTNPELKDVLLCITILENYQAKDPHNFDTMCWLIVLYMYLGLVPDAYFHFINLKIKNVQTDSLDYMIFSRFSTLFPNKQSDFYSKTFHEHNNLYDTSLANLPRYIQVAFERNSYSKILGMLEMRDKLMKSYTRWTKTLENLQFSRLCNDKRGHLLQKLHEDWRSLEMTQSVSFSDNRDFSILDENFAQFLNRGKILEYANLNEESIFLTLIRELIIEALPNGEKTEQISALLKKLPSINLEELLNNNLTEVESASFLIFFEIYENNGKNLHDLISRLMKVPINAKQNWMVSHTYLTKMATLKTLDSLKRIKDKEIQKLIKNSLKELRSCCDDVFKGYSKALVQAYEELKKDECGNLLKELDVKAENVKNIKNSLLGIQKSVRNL
Procedure: as §1, §2

| Substance | Activity (%) AAA1 [1] | acetylation of the peptide substrate by wild-type strain ([1]; crude lysate, wild-type strain) | Activity (%) aaa1 [2] | acetylation of the peptide substrate by aaa1 mutant ([2]; crude lysate, aaa1 mutant) |
| --- | --- | --- | --- | --- |
| MNTDQQKVSEIFQSSKEKLQGDAK (MNTDQQKVSEIFQSSKEKLQGDAK) [Proteinase A Inhibitor 3 (1-24) (Yeast)] | 75 ± 5% | capable of acetylating | 80 ± 5% | capable of acetylating |
| SIPETQKGVIFYESHGKLEYKDIP (SIPETQKGVIFYESHGKLEYKDIP) [Alcohol dehydrogenase (1-24) (Yeast)] | 102 ± 5% | – | 0% | – |
| SYSMEHFRWGKPVGKKRRPVKVYP | 100 ± 5% | – | 0% | – |
